Results from patent US6048890A, “Phenylamidinothiophene derivatives and anti-inflammatory agent containing the same” (Kaken Pharmaceutical Co., Ltd., priority 1995, dated 2000).
Values joined by “and” are separate entries in the source; they are usually repeats but may differ in a detail not shown here. Equal values may be shown once. Read-outs that look alike come from different tables or passages of the source.

Tests used:
rat adjuvant arthritis = assay: Action on rat adjuvant arthritis (paw swelling inhibition); type: in vivo, male Lewis rats; conditions: mean of 4 rats (standard error); for Swelling inhibition (%), Primary inflammation (inoculated paw): measured 3 days after adjuvant inoculation; for Swelling inhibition (%), Secondary inflammation (uninoculated paw): measured 17 days after adjuvant inoculation
Experimental: Seven-week old male Lewis rats (4 rats in one group) were injected under the plantar skin of the right hind paw with 0.6 mg/0.1 ml of a suspension of human tubercle bacillus, killed Mycobacterium tuberculosis H37 RA in liquid paraffin, thereby inducing adjuvant arthritis. The volume of the adjuvant-inoculated paw (primary inflammation) was measured 3 days after the inoculation of adjuvant and the volume of the adjuvant-uninoculated paw (secondary inflammation) 17 days after the inoculation of adjuvant. The swelling rate of each paw was calculated with respect to the volume of the paw before the inoculation of adjuvant. Ten mg of the instant compound was suspended in 10 ml of a 0.5% by weight aqueous solution of carboxymethyl cellulose and the oral administration of the obtained suspension began on day of adjuvant inoculating and continued for 17 days in a dose of 10 mg/kg one time per day.
The swelling rate and inhibition rate were calculated according to the following formulae: [formula]
Each value is an average value for 4 rats in one group and the value in parentheses is standard error.

stress ulcer in mice = type: in vivo; conditions: for Ulcer index: 15 minutes before 7 h constraint under water immersion, average of sum of ulcer lengths
Experimental: Six-week old male ddy […] (10 rats in one group) were completely fasted overnight and then loaded with constraint under water immersion for 7 hours. The rats were observed under a stereoscopic microscope to examine production of gastric ulcer. Sum (mm) of lengths of ulcers for each animal was taken as ulcer index. Ten mg, 30 mg or 100 mg of the instant compound was mixed with 0.15 ml of Tween 80 and suspended into a 0.5% by weight aqueous solution of gum arabic to give a total 10 ml of a suspension. The suspension was orally administered 15 minutes before loading of the constraint under water immersion. Indomethacin was used as a comparative drug.
The test results are shown in Table 3 in terms of an average value of ulcer indexes.

[1] = biological target: T1, cyclooxygenase of sheep seminal vesicle gland (Ovis aries, UniProt P05979); assay: Action on activity of cyclooxygenase of sheep seminal vesicle gland; type: biochemical
T1 construct: purchased CAYMAN CO., LTD; host or cells: sheep seminal vesicle gland
T1 sequence (P05979 25-600): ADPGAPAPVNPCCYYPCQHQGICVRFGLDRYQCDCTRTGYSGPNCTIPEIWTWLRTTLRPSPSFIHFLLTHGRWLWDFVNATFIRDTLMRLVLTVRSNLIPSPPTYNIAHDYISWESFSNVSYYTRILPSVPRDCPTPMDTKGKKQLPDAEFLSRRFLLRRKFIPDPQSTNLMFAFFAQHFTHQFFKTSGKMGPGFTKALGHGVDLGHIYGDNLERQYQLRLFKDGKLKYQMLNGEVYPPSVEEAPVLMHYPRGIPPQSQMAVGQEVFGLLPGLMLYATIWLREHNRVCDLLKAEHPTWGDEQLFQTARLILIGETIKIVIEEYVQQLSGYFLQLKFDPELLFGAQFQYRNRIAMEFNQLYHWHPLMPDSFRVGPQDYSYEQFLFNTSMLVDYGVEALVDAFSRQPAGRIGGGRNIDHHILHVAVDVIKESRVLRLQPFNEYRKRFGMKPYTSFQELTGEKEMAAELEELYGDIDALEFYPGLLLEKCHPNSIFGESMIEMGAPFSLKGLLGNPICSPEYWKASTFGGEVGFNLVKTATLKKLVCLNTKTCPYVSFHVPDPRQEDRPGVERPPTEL
Experimental: Two hundred and fifty μl of an enzyme solution containing each test compound [5 mM triptophan, 200 nM hematin, 0.04% by weight Tween 20, 10 units of cyclooxygenase of sheep seminal vesicle gland (made by CAYMAN CO., LTD.), 2 μM [1-^14 C] arachidonic acid, 0.1 M Tris-hydrochloric acid buffer solution (pH: 8.0)], underwent a reaction at 25° C. for 6 minutes. The reaction was terminated by addition of 0.5 ml of a 0.2 M citric acid buffer solution (pH 3.0). [1-^14 C]arachidonic acid was extracted with ethyl acetate and separated by a thin layer chromatography. The radioactivity of the resulting arachidonic acid fraction was determined with a scintillation counter and the inhibition was calculated.
The inhibition value was calculated according to the following formula: [formula]

[2] = 10 mg/kg oral once daily for 17 days
[3] = comparative drug, 1 mg/kg, 1 mg/kg
[4] = comparative drug, 1 mg/kg, listed as indomethacin, 1 mg/kg

`CS(=O)(=O)c1ccc(-c2cc(C(=N)Nc3ccccc3)sc2-c2ccc(F)cc2)cc1` [Example 2] was tested, and the “Swelling inhibition (%), Primary inflammation (inoculated paw)” value (“Swelling inhibition (%) … (inoculated paw)” for short) (rat adjuvant arthritis; [2]) was 22.6 (5.24) % and the “Swelling inhibition (%), Secondary inflammation (uninoculated paw)” value (“Swelling inhibition (%) … (uninoculated paw)” below) (rat adjuvant arthritis; [2]) was 28.4 (2.55) %.

For `CS(=O)(=O)c1ccc(-c2cc(C(=N)Nc3ccc(F)cc3F)sc2-c2ccc(F)cc2)cc1` [Example 12], the “Swelling inhibition (%) … (inoculated paw)” value (rat adjuvant arthritis; [2]) was 18.2 (2.73) % and the “Swelling inhibition (%) … (uninoculated paw)” value (rat adjuvant arthritis; [2]) was 24.9 (10.2) %.

For `CS(=O)(=O)c1ccc(-c2cc(C(=N)Nc3cccc(F)c3)sc2-c2ccc(F)cc2)cc1` [Example 5], the “Swelling inhibition (%) … (inoculated paw)” value (rat adjuvant arthritis; [2]) was 23.5 (4.75) % and the “Swelling inhibition (%) … (uninoculated paw)” value (rat adjuvant arthritis; [2]) was 34.7 (4.26) %.

`CS(=O)(=O)c1ccc(-c2cc(C(=N)Nc3ccccc3Cl)sc2-c2ccc(F)cc2)cc1` [Example 3] was tested, and the “Swelling inhibition (%) … (inoculated paw)” value (rat adjuvant arthritis; [2]) was 22.1 (4.94) % and the “Swelling inhibition (%) … (uninoculated paw)” value (rat adjuvant arthritis; [2]) was 32.2 (10.8) %.

In the case of `COc1ccc(NC(=N)c2cc(-c3ccc(S(C)(=O)=O)cc3)c(-c3ccc(F)cc3)s2)cc1` [Example 11], the “Swelling inhibition (%) … (inoculated paw)” value (rat adjuvant arthritis; [2]) is reported as 35.0 (10.1) % and the “Swelling inhibition (%) … (uninoculated paw)” value (rat adjuvant arthritis; [2]) is reported as 37.1 (4.42) %.

In the case of `CS(=O)(=O)c1ccc(-c2cc(C(=N)Nc3ccc(F)c(Cl)c3)sc2-c2ccc(F)cc2)cc1` [Example 18], the “Swelling inhibition (%) … (inoculated paw)” value (rat adjuvant arthritis; [2]) is reported as 27.9 (3.09) % and the “Swelling inhibition (%) … (uninoculated paw)” value (rat adjuvant arthritis; [2]) is reported as 48.9 (9.69) %.

With `CS(=O)(=O)c1ccc(-c2cc(C(=N)Nc3ccc(Cl)cc3)sc2-c2ccc(F)cc2)cc1` [Example 4] the “Swelling inhibition (%) … (inoculated paw)” value (rat adjuvant arthritis; [2]) was 32.7 (7.40) % and the “Swelling inhibition (%) … (uninoculated paw)” value (rat adjuvant arthritis; [2]) was 57.4 (8.54) %.

For `CS(=O)(=O)c1ccc(-c2cc(C(=N)Nc3ccc(Br)cc3)sc2-c2ccc(F)cc2)cc1` [Example 7], the “Swelling inhibition (%) … (inoculated paw)” value (rat adjuvant arthritis; [2]) was 36.1 (6.36) % and the “Swelling inhibition (%) … (uninoculated paw)” value (rat adjuvant arthritis; [2]) was 48.8 (3.20) %.

In the case of `CS(=O)(=O)c1ccc(-c2cc(C(=N)Nc3ccc(F)cc3)sc2-c2ccc(F)cc2)cc1` [Example 6], the “Swelling inhibition (%) … (inoculated paw)” value (rat adjuvant arthritis; [2]) is reported as 26.3 (4.37) % and the “Swelling inhibition (%) … (uninoculated paw)” value (rat adjuvant arthritis; [2]) is reported as 57.2 (5.34) %.

For `CS(=O)(=O)c1ccc(-c2cc(C(=N)Nc3ccc(Cl)c(Cl)c3)sc2-c2ccc(F)cc2)cc1` [Example 17], the “Swelling inhibition (%) … (inoculated paw)” value (rat adjuvant arthritis; [2]) was 27.4 (7.02) % and the “Swelling inhibition (%) … (uninoculated paw)” value (rat adjuvant arthritis; [2]) was 44.1 (3.83) %.

In the case of `CS(=O)(=O)c1ccc(-c2cc(C(=N)Nc3cccc(Cl)c3)sc2-c2ccc(F)cc2)cc1` [Example 1, 5-[N^1-(3-chlorophenyl)amidino]-2-(4-fluorophenyl)-3-(4-methylsulfonylphenyl)thiophene], the Ulcer index (stress ulcer in mice; 10 mg/kg oral) is reported as 6.5 mm, the Ulcer index (stress ulcer in mice; 30 mg/kg oral) is reported as 10.8 mm and the Ulcer index (stress ulcer in mice; 100 mg/kg oral) is reported as 9.6 mm. The “Ulcer index / ulcer-exacerbating action (in words)” value (stress ulcer in mice; compared with solvent-given group, up to 100 mg/kg (Example 1), 1 and 3 mg/kg (indomethacin)) was “no evident difference in ulcer index was observed even in the group given 100 mg/kg”, the inhibition at 100 µM ([1]; 10^-4 M, pH 8.0, 25° C., 6 minutes, average of two experiments) was -2.2% and the inhibition at 10 µM ([1]; 10^-5 M, pH 8.0, 25° C., 6 minutes, average of two experiments) was 1.3%. For the same compound, the inhibition at 1 µM ([1]; 10^-6 M, pH 8.0, 25° C., 6 minutes, average of two experiments) was 3.4%, the “Inhibition of cyclooxygenase activity (in words)” value ([1]; even in 10^-4 M added group) was “did not inhibit the activity of cyclooxygenase” and the “Swelling inhibition (%) … (inoculated paw)” value (rat adjuvant arthritis; [2]) was 31.5% and 31.5 (0.91) %. For the same compound, the “Swelling inhibition (%) … (uninoculated paw)” value (rat adjuvant arthritis; [2]) was 48.9% and 48.9 (3.58) %.

For `COc1ccc2c(c1)c(CC(=O)O)c(C)n2C(=O)c1ccc(Cl)cc1` [Indomethacin, indomethacin, reference compound], the “Inhibition of cyclooxygenase activity (in words)” value ([1]; 10^-6 M) was “completely inhibited the activity”, the inhibition at 0.1 µM ([1]; 10^-7 M, pH 8.0, 25° C., 6 minutes, average of two experiments) was 66.2% and the “Concentrations at which the activity of cyclooxygenase was inhibited” value ([1]; dependent on dosage) was ≥ 10^-8 M. The “Swelling inhibition (%) … (inoculated paw)” value (rat adjuvant arthritis; [3]) was 28.3 (4.10) %, the “Swelling inhibition (%) … (inoculated paw)” value (rat adjuvant arthritis; [4]) was 28.8% and the “Swelling inhibition (%) … (uninoculated paw)” value (rat adjuvant arthritis; [3]) was 43.6 (9.42) %. For the same compound, the “Swelling inhibition (%) … (uninoculated paw)” value (rat adjuvant arthritis; [4]) was 43.6%.

`CS(=O)(=O)c1ccc(-c2cc(C(=N)Nc3ccc(Cl)cc3Cl)sc2-c2ccc(F)cc2)cc1` [Example 13] was tested, and the “Swelling inhibition (%) … (inoculated paw)” value (rat adjuvant arthritis; [2]) was 16.7 (3.25) % and the “Swelling inhibition (%) … (uninoculated paw)” value (rat adjuvant arthritis; [2]) was 24.2 (5.05) %.
